In ChEMBL document CHEMBL1143494 (Bioorg Med Chem Lett, 2005):
pIC50: −log10 of the molar value. Each block holds one molecule with its values, some of them ahead of it.

Columns and labels:
[1] = molecular target: T1, A disintegrin and metalloproteinase with thrombospondin motifs 4 (Homo sapiens, UniProt O75173); experiment: Inhibitory concentration against Aggrecanase 1
T1 sequence (O75173 whole entry): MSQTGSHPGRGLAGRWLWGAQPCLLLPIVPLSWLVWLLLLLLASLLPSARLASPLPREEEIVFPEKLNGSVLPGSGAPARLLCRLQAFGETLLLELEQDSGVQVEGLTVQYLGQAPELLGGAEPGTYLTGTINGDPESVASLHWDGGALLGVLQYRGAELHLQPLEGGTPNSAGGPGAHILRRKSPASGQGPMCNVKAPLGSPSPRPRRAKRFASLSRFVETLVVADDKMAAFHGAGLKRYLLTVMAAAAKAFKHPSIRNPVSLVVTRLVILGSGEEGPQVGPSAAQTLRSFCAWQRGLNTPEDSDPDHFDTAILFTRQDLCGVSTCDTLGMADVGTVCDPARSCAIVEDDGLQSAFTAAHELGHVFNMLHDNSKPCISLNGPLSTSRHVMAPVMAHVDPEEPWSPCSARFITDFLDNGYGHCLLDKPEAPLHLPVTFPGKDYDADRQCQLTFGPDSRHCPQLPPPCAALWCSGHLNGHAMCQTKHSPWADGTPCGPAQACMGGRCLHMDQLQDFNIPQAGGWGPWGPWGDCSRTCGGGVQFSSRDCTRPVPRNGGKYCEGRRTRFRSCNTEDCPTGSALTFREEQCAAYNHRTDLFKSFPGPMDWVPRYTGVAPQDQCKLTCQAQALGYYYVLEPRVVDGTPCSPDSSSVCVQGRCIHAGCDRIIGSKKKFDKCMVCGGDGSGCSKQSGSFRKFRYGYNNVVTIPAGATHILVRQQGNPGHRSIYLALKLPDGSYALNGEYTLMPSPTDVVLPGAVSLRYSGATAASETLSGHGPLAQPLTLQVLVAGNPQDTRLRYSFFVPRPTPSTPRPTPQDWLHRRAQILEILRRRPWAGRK

[2] = molecular target: T2, Disintegrin and metalloproteinase domain-containing protein 17 (Homo sapiens, UniProt P78536); experiment: Percent inhibition at 25 uM against TACE
[3] = molecular target: Matrix metalloproteinase-9 (Homo sapiens) (UniProt P14780); experiment: Percent inhibition at 25 uM against MMP-9
Interstitial collagenase = molecular target: T3, Interstitial collagenase (Homo sapiens, UniProt P03956); experiment: Inhibitory concentration against MMP-1
T3 sequence (P03956 whole entry): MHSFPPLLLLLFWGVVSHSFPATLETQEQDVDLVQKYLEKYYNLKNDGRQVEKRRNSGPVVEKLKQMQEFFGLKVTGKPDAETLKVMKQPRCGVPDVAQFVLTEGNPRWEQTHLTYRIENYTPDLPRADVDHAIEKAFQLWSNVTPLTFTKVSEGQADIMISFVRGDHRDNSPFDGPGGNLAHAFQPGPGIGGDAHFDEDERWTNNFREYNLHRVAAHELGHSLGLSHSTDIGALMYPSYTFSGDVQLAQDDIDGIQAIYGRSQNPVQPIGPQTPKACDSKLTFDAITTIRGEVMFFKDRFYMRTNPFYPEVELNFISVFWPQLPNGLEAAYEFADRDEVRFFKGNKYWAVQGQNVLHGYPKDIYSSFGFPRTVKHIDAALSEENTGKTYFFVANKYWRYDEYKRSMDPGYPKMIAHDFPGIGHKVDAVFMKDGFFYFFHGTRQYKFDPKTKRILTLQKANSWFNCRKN

Stromelysin-1 = Stromelysin-1 (Homo sapiens, UniProt P08254); experiment: Inhibitory concentration against MMP-3
Matrilysin = molecular target: T4, Matrilysin (Homo sapiens, UniProt P09237); experiment: Inhibitory concentration against MMP-7
T4 sequence (P09237 whole entry): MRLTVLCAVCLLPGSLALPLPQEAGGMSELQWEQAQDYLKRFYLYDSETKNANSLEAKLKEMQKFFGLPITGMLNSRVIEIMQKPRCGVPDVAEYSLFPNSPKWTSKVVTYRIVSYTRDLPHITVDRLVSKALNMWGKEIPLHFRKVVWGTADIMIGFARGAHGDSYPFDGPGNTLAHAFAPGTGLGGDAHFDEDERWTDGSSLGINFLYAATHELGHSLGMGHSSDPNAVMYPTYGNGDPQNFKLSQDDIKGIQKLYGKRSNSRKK

Neutrophil collagenase = Neutrophil collagenase (Homo sapiens, UniProt P22894); experiment: Inhibitory concentration against MMP-8
Homo sapiens = organism: Homo sapiens; experiment: Ratio of the inhibitory concentration against MMP-2 to that of MMP-13
[4] = molecular target: Matrix metalloproteinase-14 (Homo sapiens, UniProt P50281)
Description: Inhibitory concentration against MMP-14

[5] = molecular target: T2, Disintegrin and metalloproteinase domain-containing protein 17; experiment: Inhibitory concentration against TACE
Collagenase 3 = Collagenase 3 (Homo sapiens, UniProt P45452); experiment: Inhibitory concentration against MMP-13
[6] = molecular target: 72 kDa type IV collagenase (Homo sapiens, UniProt P08253); experiment: Inhibitory concentration against MMP-2
Chain of 72 kDa type IV collagenase (P08253 whole entry): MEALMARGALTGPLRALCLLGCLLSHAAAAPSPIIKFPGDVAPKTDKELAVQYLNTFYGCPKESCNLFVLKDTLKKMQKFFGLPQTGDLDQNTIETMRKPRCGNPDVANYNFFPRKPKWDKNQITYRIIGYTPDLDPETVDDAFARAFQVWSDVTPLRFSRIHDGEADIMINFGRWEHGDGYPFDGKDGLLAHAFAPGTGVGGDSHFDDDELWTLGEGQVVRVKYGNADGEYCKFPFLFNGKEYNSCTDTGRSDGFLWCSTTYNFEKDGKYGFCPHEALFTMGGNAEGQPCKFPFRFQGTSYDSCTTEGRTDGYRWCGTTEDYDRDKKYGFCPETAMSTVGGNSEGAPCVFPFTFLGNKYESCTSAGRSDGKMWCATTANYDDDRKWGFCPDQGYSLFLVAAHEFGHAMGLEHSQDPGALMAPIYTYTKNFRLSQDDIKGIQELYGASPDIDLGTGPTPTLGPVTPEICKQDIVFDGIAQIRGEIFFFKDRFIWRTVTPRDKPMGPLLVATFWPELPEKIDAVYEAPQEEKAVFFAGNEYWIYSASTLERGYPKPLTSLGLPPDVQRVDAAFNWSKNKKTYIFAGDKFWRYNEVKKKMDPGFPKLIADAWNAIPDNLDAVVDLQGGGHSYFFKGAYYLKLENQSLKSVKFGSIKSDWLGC

Chain of Neutrophil collagenase (P22894 whole entry): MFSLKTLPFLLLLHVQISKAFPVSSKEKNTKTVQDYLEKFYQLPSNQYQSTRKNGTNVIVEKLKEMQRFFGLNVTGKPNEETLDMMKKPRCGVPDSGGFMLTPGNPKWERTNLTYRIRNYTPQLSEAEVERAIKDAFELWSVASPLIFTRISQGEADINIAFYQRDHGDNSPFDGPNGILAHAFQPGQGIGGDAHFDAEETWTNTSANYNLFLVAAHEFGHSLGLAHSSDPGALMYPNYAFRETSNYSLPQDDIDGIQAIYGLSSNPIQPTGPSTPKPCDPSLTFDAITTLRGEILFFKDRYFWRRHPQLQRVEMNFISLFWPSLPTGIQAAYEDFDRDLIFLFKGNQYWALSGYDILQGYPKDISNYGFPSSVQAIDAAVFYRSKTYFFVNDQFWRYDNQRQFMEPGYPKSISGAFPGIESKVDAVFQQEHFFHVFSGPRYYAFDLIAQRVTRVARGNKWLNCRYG
T2 sequence (P78536 whole entry, the tested form may be a part): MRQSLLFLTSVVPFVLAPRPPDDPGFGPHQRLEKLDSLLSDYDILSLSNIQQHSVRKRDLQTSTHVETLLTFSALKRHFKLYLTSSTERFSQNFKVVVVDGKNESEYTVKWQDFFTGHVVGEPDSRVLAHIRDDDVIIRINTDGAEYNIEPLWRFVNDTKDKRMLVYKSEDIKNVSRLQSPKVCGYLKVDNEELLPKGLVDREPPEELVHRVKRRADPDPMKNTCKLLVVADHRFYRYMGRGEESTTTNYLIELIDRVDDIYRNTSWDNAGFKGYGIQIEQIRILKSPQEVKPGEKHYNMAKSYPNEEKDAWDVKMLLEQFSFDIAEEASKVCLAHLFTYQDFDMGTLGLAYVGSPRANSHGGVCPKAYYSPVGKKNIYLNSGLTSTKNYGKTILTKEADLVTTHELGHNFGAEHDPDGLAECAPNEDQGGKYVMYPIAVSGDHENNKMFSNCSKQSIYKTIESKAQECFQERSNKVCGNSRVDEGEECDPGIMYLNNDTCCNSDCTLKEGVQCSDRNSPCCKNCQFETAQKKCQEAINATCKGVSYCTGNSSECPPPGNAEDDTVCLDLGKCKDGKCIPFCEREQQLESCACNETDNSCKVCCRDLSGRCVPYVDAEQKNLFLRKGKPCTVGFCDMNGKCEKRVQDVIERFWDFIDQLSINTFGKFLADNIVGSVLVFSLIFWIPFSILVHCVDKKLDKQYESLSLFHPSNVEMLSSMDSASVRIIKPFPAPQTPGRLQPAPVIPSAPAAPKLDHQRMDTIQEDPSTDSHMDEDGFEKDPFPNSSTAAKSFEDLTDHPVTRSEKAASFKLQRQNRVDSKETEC
Chain of Matrix metalloproteinase-9 (Homo sapiens) (P14780 whole entry): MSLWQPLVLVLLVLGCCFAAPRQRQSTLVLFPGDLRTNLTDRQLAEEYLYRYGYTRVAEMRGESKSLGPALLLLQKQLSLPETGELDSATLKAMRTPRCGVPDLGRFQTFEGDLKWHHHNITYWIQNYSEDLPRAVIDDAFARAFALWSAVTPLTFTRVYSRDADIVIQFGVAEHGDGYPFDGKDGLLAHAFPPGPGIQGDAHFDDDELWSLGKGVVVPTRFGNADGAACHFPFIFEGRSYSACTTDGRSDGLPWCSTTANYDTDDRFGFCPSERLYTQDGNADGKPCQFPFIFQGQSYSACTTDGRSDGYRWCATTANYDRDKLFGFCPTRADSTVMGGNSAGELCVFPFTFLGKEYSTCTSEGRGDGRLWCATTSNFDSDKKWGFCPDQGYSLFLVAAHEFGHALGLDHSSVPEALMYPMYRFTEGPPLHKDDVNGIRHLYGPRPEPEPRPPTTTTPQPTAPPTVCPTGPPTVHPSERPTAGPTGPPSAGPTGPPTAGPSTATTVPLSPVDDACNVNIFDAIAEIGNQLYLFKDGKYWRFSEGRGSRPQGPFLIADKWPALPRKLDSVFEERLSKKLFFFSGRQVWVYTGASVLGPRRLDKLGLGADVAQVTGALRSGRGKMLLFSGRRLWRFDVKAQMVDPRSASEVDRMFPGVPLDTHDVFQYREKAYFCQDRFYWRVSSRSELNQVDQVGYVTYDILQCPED
Chain of Stromelysin-1 (P08254 whole entry): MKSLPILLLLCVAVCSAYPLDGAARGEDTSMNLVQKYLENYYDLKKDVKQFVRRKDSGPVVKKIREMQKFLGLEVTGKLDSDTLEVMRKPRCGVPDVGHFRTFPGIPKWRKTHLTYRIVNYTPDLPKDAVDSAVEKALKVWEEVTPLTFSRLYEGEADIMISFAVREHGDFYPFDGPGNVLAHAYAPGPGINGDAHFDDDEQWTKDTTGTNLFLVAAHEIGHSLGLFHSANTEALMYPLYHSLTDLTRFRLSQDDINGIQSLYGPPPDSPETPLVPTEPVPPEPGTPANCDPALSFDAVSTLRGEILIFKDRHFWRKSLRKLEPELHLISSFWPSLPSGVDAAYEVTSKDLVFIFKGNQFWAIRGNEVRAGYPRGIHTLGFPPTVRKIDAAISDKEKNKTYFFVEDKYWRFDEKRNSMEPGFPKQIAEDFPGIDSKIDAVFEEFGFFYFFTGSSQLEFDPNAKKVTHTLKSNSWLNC

- pIC50 (Collagenase 3): 7.26
- Ratio (Homo sapiens): 32
Compound: CCc1c(C(=O)Nc2ccc(-c3ccc(S(=O)(=O)N[C@H](C(=O)O)C(C)C)cc3)cc2)oc2ccccc12

- pIC50 (Collagenase 3): 9.21
- Ratio (Homo sapiens): 1
Compound: CC(C)[C@H](NS(=O)(=O)c1ccc(-c2ccc(NC(=O)c3cc4cc(Br)ccc4o3)cc2)cc1)C(=O)O

- pIC50 [6]: 5.92
- Ratio (Homo sapiens): 6
Compound: CC(C)[C@H](NS(=O)(=O)c1ccc(-c2ccc(NC(=O)c3oc4ccccc4c3-c3ccccc3)cc2)cc1)C(=O)O

- Ratio (Homo sapiens): 175
Compound: COc1c(C#N)ccc2oc(C(=O)Nc3ccc(-c4ccc(S(=O)(=O)N[C@H](C(=O)O)C(C)C)cc4)cc3)c(C)c12

- pIC50 (Collagenase 3): 9.40
- pIC50 [6]: 8.15
- Ratio (Homo sapiens): 18
Compound: COc1c(Br)ccc2oc(C(=O)Nc3ccc(-c4ccc(S(=O)(=O)N[C@H](C(=O)O)C(C)C)cc4)cc3)cc12

- Ratio (Homo sapiens): 260
Compound: CCc1ccc2oc(C(=O)Nc3ccc(-c4ccc(S(=O)(=O)N[C@H](C(=O)O)C(C)C)cc4)cc3)c(C)c2c1OC(C)C

- Ratio (Homo sapiens): 65
Compound: CCc1ccc2oc(C(=O)Nc3ccc(-c4ccc(S(=O)(=O)N[C@H](C(=O)O)C(C)C)cc4)cc3)c(C)c2c1OCc1ccccc1

- Ratio (Homo sapiens): 7
Compound: COc1cccc2oc(C(=O)Nc3ccc(-c4ccc(S(=O)(=O)N[C@H](C(=O)O)C(C)C)cc4)cc3)cc12

- pIC50 (Collagenase 3): 8.11
- pIC50 [6]: 5.85
- Ratio (Homo sapiens): 180
Compound: COc1c(CO)ccc2oc(C(=O)Nc3ccc(-c4ccc(S(=O)(=O)N[C@H](C(=O)O)C(C)C)cc4)cc3)c(C)c12

More lines, now with the values behind:

Compound: CCc1ccc2oc(C(=O)Nc3ccc(-c4ccc(S(=O)(=O)N[C@H](C(=O)O)C(C)C)cc4)cc3)c(C)c2c1OC
- pIC50 [1]: < 4.82
- inhibition [2]: 43%
- inhibition [3]: 64%
- pIC50 (Interstitial collagenase): 4.55
- pIC50 (Stromelysin-1): 6.25
- pIC50 (Matrilysin): 5.90
- pIC50 (Neutrophil collagenase): 7.00
- Ratio (Homo sapiens): 660
- pIC50 [4]: 4.52

Compound: COc1c(Br)ccc2oc(C(=O)Nc3ccc(-c4ccc(S(=O)(=O)N[C@H](C(=O)O)C(C)C)cc4)cc3)c(C)c12
- pIC50 [1]: 5.25
- inhibition [3]: 66%
- pIC50 [5]: 4.47
- pIC50 (Stromelysin-1): 6.84
- pIC50 (Matrilysin): 6.06
- pIC50 (Neutrophil collagenase): 7.14
- Ratio (Homo sapiens): 740
- pIC50 [4]: 4.82

Compound: COc1cccc2oc(C(=O)Nc3ccc(-c4ccc(S(=O)(=O)N[C@H](C(=O)O)C(C)C)cc4)cc3)c(C)c12
- Ratio (Homo sapiens): 110

Compound: Cc1c(C(=O)Nc2ccc(-c3ccc(S(=O)(=O)N[C@H](C(=O)O)C(C)C)cc3)cc2)oc2ccc(Br)cc12
- Ratio (Homo sapiens): 27

Compound: Cc1c(C(=O)Nc2ccc(-c3ccc(S(=O)(=O)N[C@@H](C(=O)O)C(C)C)cc3)cc2)oc2ccccc12
- pIC50 (Collagenase 3): 7.77
- pIC50 [6]: 6.79
- Ratio (Homo sapiens): 10

Compound: Cc1c(C(=O)Nc2ccc(-c3ccc(S(=O)(=O)N[C@H](C(=O)O)C(C)C)cc3)cc2)oc2ccc(Cl)c(OC(C)C)c12
- pIC50 [1]: 4.84
- inhibition [2]: 98%
- inhibition [3]: 51%
- pIC50 (Interstitial collagenase): 4.43
- pIC50 (Stromelysin-1): 5.96
- pIC50 (Matrilysin): 5.79
- pIC50 (Neutrophil collagenase): 6.96
- Ratio (Homo sapiens): 275
- pIC50 [4]: 4.30

Compound: CC(=O)c1ccc2oc(C(=O)Nc3ccc(-c4ccc(S(=O)(=O)N[C@H](C(=O)O)C(C)C)cc4)cc3)c(C)c2c1O
- Ratio (Homo sapiens): 20

Compound: CC(C)[C@@H](NS(=O)(=O)c1ccc(-c2ccc(NC(=O)c3cc4ccccc4o3)cc2)cc1)C(=O)O
- pIC50 [6]: 8.34

Compound: COc1c(Cl)ccc2oc(C(=O)Nc3ccc(-c4ccc(S(=O)(=O)N[C@H](C(=O)O)C(C)C)cc4)cc3)c(C)c12
- Ratio (Homo sapiens): 785

Compound: Cc1c(C(=O)Nc2ccc(-c3ccc(S(=O)(=O)N[C@H](C(=O)O)C(C)C)cc3)cc2)oc2ccccc12
- Ratio (Homo sapiens): 44

Compound: COc1c(C)ccc2oc(C(=O)Nc3ccc(-c4ccc(S(=O)(=O)N[C@H](C(=O)O)C(C)C)cc4)cc3)c(C)c12
- pIC50 [1]: 5.07
- inhibition [2]: 39%
- inhibition [3]: 76%
- pIC50 (Interstitial collagenase): 4.43
- pIC50 (Stromelysin-1): 6.35
- pIC50 (Matrilysin): 6.27
- pIC50 (Neutrophil collagenase): 7.28
- Ratio (Homo sapiens): 330
- pIC50 [4]: 4.82

Compound: CCc1ccc2oc(C(=O)Nc3ccc(-c4ccc(S(=O)(=O)N[C@H](C(=O)O)C(C)C)cc4)cc3)c(C)c2c1O
- pIC50 [1]: 5.36
- inhibition [2]: 42%
- inhibition [3]: 55%
- pIC50 (Interstitial collagenase): 4.63
- pIC50 (Stromelysin-1): 6.31
- pIC50 (Matrilysin): 6.34
- pIC50 (Neutrophil collagenase): 7.03
- Ratio (Homo sapiens): 250
- pIC50 [4]: 4.80

Compound: COc1c(I)ccc2oc(C(=O)Nc3ccc(-c4ccc(S(=O)(=O)N[C@H](C(=O)O)C(C)C)cc4)cc3)c(C)c12
- pIC50 [1]: 4.82
- inhibition [2]: 38%
- inhibition [3]: 51%
- pIC50 (Interstitial collagenase): 4.22
- pIC50 (Stromelysin-1): 5.97
- pIC50 (Matrilysin): 5.52
- pIC50 (Neutrophil collagenase): 6.39
- Ratio (Homo sapiens): 650
- pIC50 [4]: 4.52

Compound: COc1c(Br)ccc2oc(C(=O)Nc3ccc(-c4ccc(S(=O)(=O)N[C@@H](C(=O)O)C(C)C)cc4)cc3)c(C)c12
- pIC50 (Collagenase 3): 8.47
- pIC50 [6]: 6.16
- Ratio (Homo sapiens): 202
